Earlier results as cited in patent US20090155200A1, “Methods of promoting cartilage healing or cartilage integration” (priority 2004, published 2009).

System: articular cartilage defect
Settings: pre-treatment with trypsin; Chen et al. 2000

## trypsin
  integration and remodeling of implanted cartilage: improved
